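48-hour exposure; five concentrations; linearly interpolated endpoints. Here, GI50 denotes the concentration required for 50% inhibition of growth.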 Calls of active or inactive are those of the source. No stated cut-off is given here; in the data, active = GI50 up to about 1.1 µM and inactive = higher.
What was measured:
Test in all cases: inhibition of tumour cell growth, NCI panel, 48 h
[1] = system: CAKI-1
[2] = system: COLO 205
[3] = system: EKVX
[4] = system: HT-29
[5] = system: Hs-578T
[6] = system: K562
[7] = system: KM12
[8] = system: M14
[9] = system: MDA-N
[10] = system: NCI-H460
[11] = system: OVCAR-4
[12] = system: OVCAR-5
[13] = system: PC-3
[14] = system: RPMI-8226
[15] = system: SF-539
[16] = system: SK-MEL-5
[17] = system: SNB-75
[18] = system: SR
[19] = system: UACC-257
[20] = system: HCC 2998

Compound	GI50 [1]	GI50 [2]	GI50 [3]	GI50 [4]	GI50 [5]	GI50 [6]	GI50 [7]	GI50 [8]	GI50 [9]	GI50 [10]	GI50 [11]	GI50 [12]	GI50 [13]	GI50 [14]	GI50 [15]	GI50 [16]	GI50 [17]	GI50 [18]	GI50 [19]	GI50 [20]
CC(=O)Nc1ccc(-c2cc(C(=O)O)c3cc4ccccc4cc3n2)cc1	> 100 µM (inactive)	> 100 µM (inactive)	> 100 µM (inactive)	> 100 µM (inactive)	> 100 µM (inactive)	> 100 µM (inactive)	> 100 µM (inactive)	> 100 µM (inactive)	> 100 µM (inactive)	> 100 µM (inactive)	> 100 µM (inactive)	> 100 µM (inactive)	> 100 µM (inactive)	> 100 µM (inactive)	> 100 µM (inactive)	> 100 µM (inactive)	> 100 µM (inactive)	> 100 µM (inactive)	> 100 µM (inactive)	–
O=C(O)COc1cccc2ccccc(=O)c12	> 100 µM (inactive)	> 100 µM (inactive)	> 100 µM (inactive)	> 100 µM (inactive)	> 100 µM (inactive)	> 100 µM (inactive)	> 100 µM (inactive)	> 100 µM (inactive)	> 100 µM (inactive)	> 100 µM (inactive)	> 100 µM (inactive)	> 100 µM (inactive)	> 100 µM (inactive)	–	> 100 µM (inactive)	> 100 µM (inactive)	0.0126 µM (active)	> 100 µM (inactive)	> 100 µM (inactive)	> 100 µM (inactive)
O=C(OC[C@H]1C[C@H]2C(=O)CCC[C@H]2O1)c1ccccc1	> 100 µM (inactive)	> 100 µM (inactive)	> 100 µM (inactive)	> 100 µM (inactive)	> 100 µM (inactive)	> 100 µM (inactive)	> 100 µM (inactive)	> 100 µM (inactive)	> 100 µM (inactive)	> 100 µM (inactive)	> 100 µM (inactive)	> 100 µM (inactive)	> 100 µM (inactive)	> 100 µM (inactive)	> 100 µM (inactive)	> 100 µM (inactive)	> 100 µM (inactive)	> 100 µM (inactive)	> 100 µM (inactive)	–
Cc1nc2ccccc2c(=O)n1NC(=O)c1ccccc1O	–	> 100 µM (inactive)	> 100 µM (inactive)	> 100 µM (inactive)	> 100 µM (inactive)	> 100 µM (inactive)	> 100 µM (inactive)	> 100 µM (inactive)	> 100 µM (inactive)	> 100 µM (inactive)	> 100 µM (inactive)	> 100 µM (inactive)	> 100 µM (inactive)	> 100 µM (inactive)	> 100 µM (inactive)	> 100 µM (inactive)	> 100 µM (inactive)	> 100 µM (inactive)	> 100 µM (inactive)	> 100 µM (inactive)
COc1ccc(OC)c(/C=N/N=C2\C(=O)Nc3c(Cl)cc(Cl)cc32)c1	71.3 µM (inactive)	> 100 µM (inactive)	8.67 µM (inactive)	63.4 µM (inactive)	20.4 µM (inactive)	36 µM (inactive)	35.4 µM (inactive)	68.4 µM (inactive)	20 µM (inactive)	63.5 µM (inactive)	38.2 µM (inactive)	> 100 µM (inactive)	38.8 µM (inactive)	–	38 µM (inactive)	56.1 µM (inactive)	0.505 µM (active)	25.1 µM (inactive)	> 100 µM (inactive)	> 100 µM (inactive)
CCC/N=C/c1cc(Cc2ccc(O)c(/C=N/CCC)c2)ccc1O	21.1 µM (inactive)	16.1 µM (inactive)	8.87 µM (inactive)	12.5 µM (inactive)	16 µM (inactive)	1.69 µM (inactive)	3.95 µM (inactive)	2.69 µM (inactive)	2.78 µM (inactive)	18.4 µM (inactive)	5.47 µM (inactive)	18.4 µM (inactive)	1.82 µM (inactive)	–	2.77 µM (inactive)	5.51 µM (inactive)	2.86 µM (inactive)	1.95 µM (inactive)	19.1 µM (inactive)	14.1 µM (inactive)
C=C1[C@H](OC(C)=O)[C@H]2[C@@H](OC(C)=O)[C@@H](C)C[C@]2(C)C(=O)[C@H](C)/C=C/C(C)(C)C(=O)[C@H](OCC(C)C)[C@H]1OC(C)=O	24.7 µM (inactive)	12.9 µM (inactive)	> 25 µM (inactive)	–	> 25 µM (inactive)	–	> 25 µM (inactive)	> 25 µM (inactive)	14.4 µM (inactive)	12.6 µM (inactive)	> 25 µM (inactive)	> 25 µM (inactive)	> 25 µM (inactive)	–	19.6 µM (inactive)	> 25 µM (inactive)	> 25 µM (inactive)	> 25 µM (inactive)	> 25 µM (inactive)	> 25 µM (inactive)

From ChEMBL document CHEMBL1201862, “PubChem BioAssay data set” (2004)
